For data set [1], the target named is B-Raf (Homo sapiens, UniProt P15056). Put plainly: B-Raf biochemical kinase inhibition (AlphaScreen, biotin-MEK1 substrate). As to conditions: 100 μM ATP. In short, it runs like this:
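IC50 derived from AlphaScreen signal plotted against compound concentration. Final ATP 100 μM; 3 h incubation at room temperature. Eight-point 3-fold dilution series prepared from a 0.1 mM DMSO stock.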
(In general: Alpha assays give light when donor and acceptor beads are brought close together.)

The test system of data set [2] is COLO205 colon adenocarcinoma cells (B-Raf V600E). Put plainly: COLO205 cell growth inhibition (ATPlite). As to conditions: Homo sapiens, COLO 205, 72 h; COLO205, 3 days incubation. The class given is cell-based. A digest of the protocol: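 Cells plated overnight, then exposed 3 days at 37° C to 8-point 1:3 compound dilutions topping at 10 μM final. Viability read as ATPlite luminescence, proportional to cell number; IC50 from luminescence versus concentration.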

Data set [3] has as its target T1, CYP1A2 (Homo sapiens, UniProt P05177).
T1 sequence (P05177 1-516): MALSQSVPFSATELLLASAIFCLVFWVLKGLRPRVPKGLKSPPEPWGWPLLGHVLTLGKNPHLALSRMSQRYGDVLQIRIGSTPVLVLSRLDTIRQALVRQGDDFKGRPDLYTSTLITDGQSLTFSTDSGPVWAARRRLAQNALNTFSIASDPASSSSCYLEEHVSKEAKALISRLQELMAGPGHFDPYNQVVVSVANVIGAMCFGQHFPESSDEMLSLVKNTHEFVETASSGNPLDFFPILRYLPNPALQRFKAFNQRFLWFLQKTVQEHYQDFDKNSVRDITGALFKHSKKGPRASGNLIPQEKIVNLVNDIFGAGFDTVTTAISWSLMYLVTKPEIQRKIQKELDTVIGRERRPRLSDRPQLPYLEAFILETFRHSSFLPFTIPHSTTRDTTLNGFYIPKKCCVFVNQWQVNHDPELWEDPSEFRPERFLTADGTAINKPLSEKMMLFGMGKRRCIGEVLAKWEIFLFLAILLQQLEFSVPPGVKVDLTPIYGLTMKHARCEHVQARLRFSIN
The data set is described as follows: CYP1A2 inhibition (fluorescent substrate). The class given is in vitro ADME. The following applies: CYP1A2, CEC substrate; read-out: Cyp IC50 1A2. A digest of the protocol: (§1)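 IC50 values come from plotting product fluorescence against compound concentration; inhibition lowers formation of the fluorescent metabolite. Ten-point twofold dilutions in co-factor mix were held 10 minutes at 37 °C before the enzyme reaction, also run at 37 °C.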

The target of data set [4] is CYP2D6 (Homo sapiens, UniProt P10635). The data set is described as follows: CYP2D6 inhibition (fluorescent substrate). It counts as in vitro ADME. The following applies: CYP2D6, AMMC substrate; read-out: Cyp IC50 2D6. A digest of the protocol: as §1
Chain of CYP2D6 (P10635 whole entry): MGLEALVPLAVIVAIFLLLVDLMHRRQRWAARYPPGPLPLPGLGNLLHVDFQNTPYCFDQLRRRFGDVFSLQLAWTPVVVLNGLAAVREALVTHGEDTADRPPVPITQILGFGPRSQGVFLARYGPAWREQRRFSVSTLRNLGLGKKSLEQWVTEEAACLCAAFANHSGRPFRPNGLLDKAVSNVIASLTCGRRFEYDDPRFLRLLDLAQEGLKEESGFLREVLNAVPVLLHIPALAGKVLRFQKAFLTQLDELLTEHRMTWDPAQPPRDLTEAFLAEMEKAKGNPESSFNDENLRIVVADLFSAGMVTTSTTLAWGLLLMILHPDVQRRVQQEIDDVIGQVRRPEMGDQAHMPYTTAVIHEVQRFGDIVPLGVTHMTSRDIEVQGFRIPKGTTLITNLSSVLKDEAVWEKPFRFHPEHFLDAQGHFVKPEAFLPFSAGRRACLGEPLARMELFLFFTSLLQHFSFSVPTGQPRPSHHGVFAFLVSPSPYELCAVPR

Chain of B-Raf (P15056 whole entry): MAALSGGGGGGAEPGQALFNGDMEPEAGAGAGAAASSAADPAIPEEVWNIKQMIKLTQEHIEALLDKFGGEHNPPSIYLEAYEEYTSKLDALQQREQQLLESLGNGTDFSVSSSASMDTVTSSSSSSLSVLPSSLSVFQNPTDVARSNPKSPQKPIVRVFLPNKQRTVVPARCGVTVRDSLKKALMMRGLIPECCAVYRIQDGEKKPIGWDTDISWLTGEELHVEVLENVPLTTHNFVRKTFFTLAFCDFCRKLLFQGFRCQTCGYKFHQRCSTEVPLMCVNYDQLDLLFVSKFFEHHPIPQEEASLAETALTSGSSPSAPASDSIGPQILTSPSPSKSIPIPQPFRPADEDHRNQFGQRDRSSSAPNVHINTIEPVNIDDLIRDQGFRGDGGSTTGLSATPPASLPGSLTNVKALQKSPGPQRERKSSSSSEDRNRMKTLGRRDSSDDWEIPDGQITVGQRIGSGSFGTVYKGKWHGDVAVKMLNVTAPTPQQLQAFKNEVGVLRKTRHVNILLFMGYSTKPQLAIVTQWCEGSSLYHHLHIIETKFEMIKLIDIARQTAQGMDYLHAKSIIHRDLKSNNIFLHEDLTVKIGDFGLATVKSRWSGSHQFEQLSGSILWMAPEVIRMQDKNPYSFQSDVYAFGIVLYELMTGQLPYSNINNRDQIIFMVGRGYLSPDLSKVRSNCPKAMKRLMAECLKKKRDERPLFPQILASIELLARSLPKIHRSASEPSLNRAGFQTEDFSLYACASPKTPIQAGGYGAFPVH

Take `COc1ccnc2[nH]cc(C(=O)c3c(F)ccc(NS(=O)(=O)c4cccc(F)c4)c3F)c12` [P-2023, N-[2,4-Difluoro-3-(4-methoxy-1H-pyrrolo[2,3-b]pyridine-3-carbonyl)-phenyl]-3-fluoro-benzenesulfonamide]: the IC50 in data set [1] is under 0.01 µM; in data set [2], under 5 µM; in data set [3], over 10 µM; in data set [4], over 10 µM.
`Cc1cnc2[nH]cc(C(=O)c3c(F)ccc(NS(=O)(=O)c4c(F)cccc4F)c3F)c2c1` [P-2024, N-[2,4-Difluoro-3-(5-methyl-1H-pyrrolo[2,3-b]pyridine-3-carbonyl)-phenyl]-2,6-difluoro-benzenesulfonamide]: the IC50 in data set [1] was under 0.1 µM; in data set [2], under 5 µM; in data set [3] it was over 10 µM; in data set [4], over 10 µM.
For `N#Cc1cnc2[nH]cc(C(=O)c3c(F)ccc(NS(=O)(=O)c4c(F)cccc4F)c3F)c2c1` [P-2029, N-[3-(5-Cyano-1H-pyrrolo[2,3-b]pyridine-3-carbonyl)-2,4-difluoro-phenyl]-2,6-difluoro-benzenesulfonamide], the half-maximal inhibitory concentration (IC50) in data set [1] was under 0.1 µM; in data set [2], under 5 µM; in data set [3], over 10 µM; in data set [4], over 10 µM.
As to `COc1ccnc2[nH]cc(C(=O)c3c(F)ccc(NS(=O)(=O)c4c(F)cccc4F)c3F)c12` [P-2031, N-[2,4-Difluoro-3-(4-methoxy-1H-pyrrolo[2,3-b]pyridine-3-carbonyl)-phenyl]-2,6-difluoro-benzenesulfonamide], the IC50 in data set [1] is under 1 µM; in data set [2], under 5 µM; in data set [3], over 10 µM; in data set [4], over 10 µM.
For the molecule `O=C(c1c(F)ccc(NS(=O)(=O)c2c(F)cccc2F)c1F)c1c[nH]c2nccc(Cl)c12` [P-2033, N-[3-(4-Chloro-1H-pyrrolo[2,3-b]pyridine-3-carbonyl)-2,4-difluoro-phenyl]-2,6-difluoro-benzenesulfonamide], the IC50 is under 0.1 µM in data set [1], under 10 µM in data set [2], over 10 µM in data set [3] and over 10 µM in data set [4].
`N#Cc1ccnc2[nH]cc(C(=O)c3c(F)ccc(NS(=O)(=O)c4cc(F)ccc4F)c3F)c12` [P-2036, N-[3-(4-Cyano-1H-pyrrolo[2,3-b]pyridine-3-carbonyl)-2,4-difluoro-phenyl]-2,5-difluoro-benzenesulfonamide]: the IC50 in data set [1] was under 0.01 µM; in data set [2], under 1 µM; in data set [3] it was over 10 µM; in data set [4], over 10 µM.
Regarding `N#Cc1ccnc2[nH]cc(C(=O)c3c(F)ccc(NS(=O)(=O)c4cccc(F)c4)c3F)c12` [P-2039, N-[3-(4-Cyano-1H-pyrrolo[2,3-b]pyridine-3-carbonyl)-2,4-difluoro-phenyl]-3-fluoro-benzenesulfonamide], the half-maximal inhibitory concentration (IC50) in data set [1] is under 0.01 µM; in data set [2], under 5 µM; in data set [3], over 10 µM; in data set [4] it was over 10 µM.
With `COc1ncc(-c2cnc3[nH]cc(C(=O)c4c(F)ccc(NS(=O)(=O)c5ccccc5F)c4F)c3c2)cn1` [P-2041, N-{2,4-Difluoro-3-[5-(2-methoxy-pyrimidin-5-yl)-1H-pyrrolo[2,3-b]pyridine-3-carbonyl]-phenyl}-2-fluoro-benzenesulfonamide], the IC50 is under 0.01 µM in data set [1], under 1 µM in data set [2], over 10 µM in data set [3] and over 10 µM in data set [4].
As to `COc1ncc(-c2cnc3[nH]cc(C(=O)c4c(F)ccc(NS(=O)(=O)c5cc(F)ccc5F)c4F)c3c2)cn1` [P-2042, N-{2,4-Difluoro-3-[5-(2-methoxy-pyrimidin-5-yl)-1H-pyrrolo[2,3-b]pyridine-3-carbonyl]-phenyl}-2,5-difluoro-benzenesulfonamide], the IC50 in data set [1] is under 0.01 µM; in data set [2] it was under 0.1 µM; in data set [3], over 10 µM; in data set [4], over 10 µM.

A word on the IC50: it is the point on the concentration scale where inhibition reaches its midpoint.

These data come from patent US8198273B2, “Compounds and methods for kinase modulation, and indications therefor” (Plexxikon Inc., priority 2009, dated 2012).
